Laboratory results as given in patent US20120165403A1, “METHODS OF INHIBITING THE ACTIVITY OF HSP90 AND/OR ARYL HYDROCARBON RECEPTOR” (UNIVERSITY OF ROCHESTER, priority 2004, published 2012).

How the values were obtained:
[1] = system: TCDD-mediated CYP1A1 gene induction; experiment: CYP1A1 expression by Western blot in Hepa1c1c7 cells; type: cell-based, mouse
Description: (§1) Mouse hepatoma cells, Hepa1c1c7 (Hepa), and BP^rCl cells were maintained in modified Eagle's medium (Sigma) supplemented with 10% heat-inactivated fetal bovine serum, sodium pyruvate, L-glutamine, sodium bicarbonate, and Gentamicin (MEM+), at 37° C. in a humid atmosphere with 5% CO2. BP^rCl cells are a derivative of Hepa1c1c7 cells that lack ARNT protein expression and function (Probst et al., Mol. Pharmacol. 44:511-518 (1993), which is hereby incorporated by reference in its entirety). Upon reaching 90% confluency, cells were harvested and homogenized in HEDG buffer (25 mM HEPES, 1.5 mM Na2EDTA, 1 mM dithiothreitol, 10% (v/v) glycerol, pH 7.6) containing protease inhibitors (Roche Applied Science complete mini cocktail tablet, Indianapolis, Ind.). Both Hepa and BP^rC1 cytosols were prepared by centrifugation of the homogenate at 100,000 g for 45 min.
Hepa cells were plated onto 6-well plates at a density of 5×10^5 cells/well and incubated overnight at 37° C. Cells were treated with vehicle (DMSO), TCDD (150 pM), EGCG, or EGCG in the presence of TCDD (150 pM) for 4 hrs. Cells were lysed (0.2% Triton, 5 mM EDTA in PBS) and total protein quantified using the Coomassie Plus Protein Assay Reagent (Pierce, Rockford, Ill.). Protein (30 μg) was separated by SDS-PAGE (7.5% acrylamide resolving gel) and transferred to PVDF membrane (Millipore, Bedford, Mass.). […]

[2] = system: TCDD induced luciferase activity (human CYP1A1 promoter); experiment: Luciferase reporter gene assay in HepG2.101L cells; type: cell-based
Description: The human hepatoma cell line HepG2 were stably transfected with a luciferase expression vector downstream from exon one, a portion of intron one, and 1612 base pairs of the 5′-flanking sequence of the human CYP1A gene to generate the cell line HepG2.101L, as previously described (Postlind et al., Toxicol. Appl. Pharmacol 118:255-262 (1993), which is hereby incorporated by reference in its entirety). Cells were grown in Dulbecco's modified Eagle's medium (Mediatech Herndon, Va.) supplemented with 10% fetal bovine serum and Gentamicin (DMEM) at 37° C. in a humid atmosphere with 5% CO2. Treatment and reporter gene activity were assessed as previously described (Palermo et al., Chem. Res. Toxicol. 16:865-872 (2003), which is hereby incorporated by reference in its entirety) with the following changes: HepG2.101L cells were added to hydrated Cytodex™ microcarrier beads (Sigma) to achieve 1.5×10^6 cells per 30 mg beads per 10 ml DMEM. Luminescence was detected using the Packard Lumicount™ (Meriden, Conn.).

mouse AhR = experiment: Competitive binding by velocity sedimentation on sucrose density gradients
Description: as §1
Competitive binding of EGCG was analyzed by velocity sedimentation on sucrose gradients in a vertical tube rotor (Tsui et al., Can. J. Physiol. Pharmacol 59:927-931 (1981); Jensen et al., Toxicol. Sci. 64:41-56 (2001), which are hereby incorporated by reference in their entirety). Hepa cytosol (100 μl of 2.5 mg/ml) or BP^rCl cytosol was incubated for two hours at room temperature with either 3 nM ^3H-TCDD, 0.5 nM ^3H-TCDD, or 5 nM ^3H-BNF, in the presence of DMSO, 150-fold excess TCDF, 1 μM 3M4NF, or EGCG. Cytosols were washed with charcoal-dextran (1 mg charcoal/mg protein) in HEDG, and applied to a 10-30% (w/v) sucrose gradient in Beckman Quick-Seal centrifuge tubes (Beckman, Palo Alto, Calif.). [Methyl-^14C]-BSA was used as an internal sedimentation marker. The gradients were centrifuged for 2 h at 372,000×g in a Beckman VTI-80 rotor. Fractions were collected from the top at a rate of 1 ml/min, 0.2 ml/fraction. For competitive binding assays, fractions were assayed for radioactivity with ScintiVerse (Fisher Scientific, Fair Lawn, N.J.). […] For AhR and hsp90 density analysis, protein contained within an aliquot (200 of each fraction was separated by SDS-PAGE (7.5% acrylamide resolving gel) and transferred to PVDF membranes. Membranes were probed with antibodies recognizing AhR (Biomol) or hsp90 (Stressgen, Victoria, BC Canada). A crude estimate of the sedimentation coefficient for the EGCG shifted AhR complex was calculated by the method of Martin and Ames (Martin et al., J. Biol. Chem. 236:1372-1379 (1961), which is hereby incorporated by reference in its entirety) relative to the ^14C-BSA (4.4S) standard.

O=C(O[C@@H]1Cc2c(O)cc(O)cc2O[C@@H]1c1cc(O)c(O)c(O)c1)c1cc(O)c(O)c(O)c1 [EGCG, epigallocatechin gallate]
CYP1A1 gene induction, treatment alone ([1]; EGCG alone, Western blot): no effect on CYP1A1 gene induction
inhibition of TCDD-mediated CYP1A1 gene induction ([1]; simultaneously with 150 pM TCDD): concentration-dependent inhibition
IC50 ([2]; 500 pM TCDD, 4 h, read-out: IC50, inhibition of TCDD induced luciferase activity): ~100 µM
induction of luciferase activity, treatment alone ([2]; EGCG alone): did not induce luciferase activity significantly over background
displacement of TCDD from the AhR ligand-binding site (mouse AhR; ARNT deficient BPrC1 cytosol, lower concentrations of 3H-TCDD): incapable of displacing TCDD
inhibition of TCDD binding after pretreatment (mouse AhR; BPrC1 cytosol pretreated 30 minutes with EGCG): failed to inhibit TCDD binding
competition with 3H-TCDD for specific binding to the AhR (9S peak) (mouse AhR; Hepa cytosol, 3 nM 3H-TCDD, 2 h, room temperature): failed to attenuate the ^3H-TCDD 9S signal
competition with 3H-BNF for binding to the AhR (mouse AhR; Hepa cytosol, 5 nM 3H-BNF, 2 h, room temperature): failed to inhibit BNF binding
